Key:
Adrenergic receptor beta [1] = target: Adrenergic receptor beta (Homo sapiens, UniProt P08588+P07550+P13945)
Description: Evaluated for Beta adrenergic receptor agonistic property in isolated guinea pig atria

Adrenergic receptor beta [2] = target: Adrenergic receptor beta (Rattus norvegicus, UniProt P18090+P10608+P26255)
[3] = target: Adrenergic receptor alpha

## CC(C)NCC(O)c1cc(O)c(O)c(F)c1 (stereo not given)
Adrenergic receptor beta [1]
  EC50: 0.02 µM
Adrenergic receptor beta [2]
  IC50: 0.6 µM
[3]
  IC50: 55 µM

## CC(C)NCC(O)c1cc(O)c(O)cc1F (stereo not given)
Adrenergic receptor beta [1]
  EC50: 30 µM
Adrenergic receptor beta [2]
  IC50: 5.5 µM
[3]
  IC50: 80 µM

## CC(C)NCC(O)c1ccc(O)c(O)c1F (stereo not given)
Adrenergic receptor beta [1]
  EC50: 0.01 µM
Adrenergic receptor beta [2]
  IC50: 0.5 µM
[3]
  IC50: 59 µM

## CC(C)NCC(O)c1ccc(O)c(O)c1 (racemic) [ISOPROTERENOL]
[3]
  IC50: > 100 µM

Source: ChEMBL document CHEMBL1122167, “Syntheses and adrenergic agonist properties of ring-fluorinated isoproterenols” (J Med Chem, 1982)
